Tested on: Vaccinia-infected cells, mCherry/Venus stage reporter fluorescence
Assay: inhibition of vaccinia stage-reporter fluorescence – cell-based, dry powder, dose response (AID 1053166)

`Cc1ccccc1-c1ccc(CN(C)C[C@@H]2Oc3cc(C#C[C@@H](C)O)ccc3S(=O)(=O)N([C@@H](C)CO)C[C@@H]2C)cc1` and `C[C@@H](O)C#Cc1ccc2c(c1)O[C@@H](CN(C)Cc1ccc(-c3ccccc3Cl)cc1)[C@@H](C)CN([C@@H](C)CO)S2(=O)=O` are within 1.5-fold of each other in AC50: 1150 nM for the first, 992 nM for the second.

`Cc1cccc(-c2ccc(CN(C)C[C@@H]3Oc4cc(C#C[C@@H](C)O)ccc4S(=O)(=O)N([C@@H](C)CO)C[C@@H]3C)cc2)c1` and `Cc1ccc(-c2ccc(CN(C)C[C@@H]3Oc4cc(C#C[C@@H](C)O)ccc4S(=O)(=O)N([C@@H](C)CO)C[C@@H]3C)cc2)cc1` are within 1.5-fold of each other in AC50: 2370 nM for the first, 1790 nM for the second.
